Source: patent US20060040991A1, “Pharmaceutical presentation form for oral administration of a poorly soluble active compound, process for its preparation and kit” (Baxter International Inc., priority 2004, published 2006)

Legend:
[1] = Bioavailability on peroral administration in customary presentation forms; format: in vivo
tubulin = conditions: cited from earlier work
[2] = Solubility of indibulin in solvents; format: physicochemical

Structure (SMILES): O=C(Nc1ccncc1)C(=O)c1cn(Cc2ccc(Cl)cc2)c2ccccc12 [indibulin, N-(pyridin-4-yl)-[1-(4-chlorobenzyl)indol-3-yl]-glyoxylamide]
- bioavailability ([1]; micronized active compound processed to oral presentation forms (suspensions, capsules or tablets)): comparatively low
- bioavailability ([1]; perorally in customary presentation forms, e.g. powder, granule, tablet or capsule): low
- in vitro and in vivo activity as a tubulin inhibitor (tubulin): significant
- solubility in various organic solvents ([2]; dimethylformamide, dimethyl sulfoxide and N-methylpyrrolidone): Adequate solubility
- solubility in highly concentrated organic acids ([2]; greater than 50% by weight, e.g. acetic acid or lactic acid): relatively good solvents
- solubility in hydrophilic solvents ([2]; water, methanol, ethanol and isopropanol): virtually insoluble
